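Step 1: Grow cells in 96-well plates. Step 2: Expose to compound for 48 hours at 5 concentrations. Step 3: Interpolate endpoints linearly; if unreached, use highest concentration. TGI marks complete inhibition of growth.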
Key:
Test in all cases: NCI tumour cell line growth inhibition, 48 h
786-0 renal = system: 786-0 renal
A549 NSCLC = system: A549 NSCLC
ACHN renal = system: ACHN renal
BT-549 breast = system: BT-549 breast
CCRF-CEM leukemia = system: CCRF-CEM leukemia
COLO 205 colon = system: COLO 205 colon
DU-145 prostate = system: DU-145 prostate
HCC-2998 colon = system: HCC-2998 colon
HCT-116 colon = system: HCT-116 colon
HCT-15 colon = system: HCT-15 colon
HL-60(TB) leukemia = system: HL-60(TB) leukemia
HOP-62 NSCLC = system: HOP-62 NSCLC
HOP-92 NSCLC = system: HOP-92 NSCLC
HS 578T breast = system: HS 578T breast
HT29 colon = system: HT29 colon
IGROV1 ovarian = system: IGROV1 ovarian
K-562 leukemia = system: K-562 leukemia
KM12 colon = system: KM12 colon
LOX IMVI melanoma = system: LOX IMVI melanoma
M14 melanoma = system: M14 melanoma
MALME-3M melanoma = system: MALME-3M melanoma
MCF7 breast = system: MCF7 breast
MDA-MB-231 breast = system: MDA-MB-231 breast
MDA-MB-435 = system: MDA-MB-435
MDA-N = system: MDA-N
MOLT-4 leukemia = system: MOLT-4 leukemia
NCI-H226 lung = system: NCI-H226 lung
NCI-H23 lung = system: NCI-H23 lung
NCI-H460 lung = system: NCI-H460 lung
NCI-H522 lung = system: NCI-H522 lung
OVCAR-3 ovarian = system: OVCAR-3 ovarian
OVCAR-4 ovarian = system: OVCAR-4 ovarian
OVCAR-8 ovarian = system: OVCAR-8 ovarian
RPMI-8226 leukemia = system: RPMI-8226 leukemia
RXF 393 renal = system: RXF 393 renal
SF-268 CNS = system: SF-268 CNS
SF-295 CNS = system: SF-295 CNS
SF-539 CNS = system: SF-539 CNS
SK-MEL-2 melanoma = system: SK-MEL-2 melanoma
SK-MEL-28 melanoma = system: SK-MEL-28 melanoma
SK-MEL-5 melanoma = system: SK-MEL-5 melanoma
SN12C renal = system: SN12C renal
SNB-19 CNS = system: SNB-19 CNS
SNB-75 CNS = system: SNB-75 CNS
SR leukemia = system: SR leukemia
SW-620 colon = system: SW-620 colon
T-47D breast = system: T-47D breast
TK-10 renal = system: TK-10 renal
U251 CNS = system: U251 CNS
UACC-62 melanoma = system: UACC-62 melanoma
UO-31 renal = system: UO-31 renal
CAKI-1 renal = system: CAKI-1 renal
EKVX NSCLC = system: EKVX NSCLC
NCI/ADR-RES ovarian = system: NCI/ADR-RES ovarian
OVCAR-5 ovarian = system: OVCAR-5 ovarian
PC-3 prostate = system: PC-3 prostate
SK-OV-3 ovarian = system: SK-OV-3 ovarian
UACC-257 melanoma = system: UACC-257 melanoma
A498 renal = system: A498 renal

COc1ccccc1CNCCCCCNCCCCCCCCCCNCCCCCNCc1ccccc1OC
TGI (786-0 renal): 42.1 µM | TGI (A549 NSCLC): 58.8 µM | TGI (ACHN renal): > 100 µM | TGI (BT-549 breast): 45.5 µM | TGI (CCRF-CEM leukemia): 32.4 µM | TGI (COLO 205 colon): > 100 µM | TGI (DU-145 prostate): 33.5 µM | TGI (HCC-2998 colon): 39.2 µM | TGI (HCT-116 colon): 24.1 µM | TGI (HCT-15 colon): > 100 µM | TGI (HL-60(TB) leukemia): 43.7 µM | TGI (HOP-62 NSCLC): 31.8 µM | TGI (HOP-92 NSCLC): > 100 µM | TGI (HS 578T breast): 5.78 µM | TGI (HT29 colon): > 100 µM | TGI (IGROV1 ovarian): 45 µM | TGI (K-562 leukemia): 31.7 µM | TGI (KM12 colon): 58.4 µM | TGI (LOX IMVI melanoma): 30.3 µM | TGI (M14 melanoma): > 100 µM | TGI (MALME-3M melanoma): 61.3 µM | TGI (MCF7 breast): 32.7 µM | TGI (MDA-MB-231 breast): 31.6 µM | TGI (MDA-MB-435): > 100 µM | TGI (MDA-N): 34.5 µM | TGI (MOLT-4 leukemia): 26.5 µM | TGI (NCI-H226 lung): 34.3 µM | TGI (NCI-H23 lung): > 100 µM | TGI (NCI-H460 lung): 26.8 µM | TGI (NCI-H522 lung): 42.2 µM | TGI (OVCAR-3 ovarian): > 100 µM | TGI (OVCAR-4 ovarian): > 100 µM | TGI (OVCAR-8 ovarian): 77.7 µM | TGI (RPMI-8226 leukemia): > 100 µM | TGI (RXF 393 renal): 96.3 µM | TGI (SF-268 CNS): > 100 µM | TGI (SF-295 CNS): > 100 µM | TGI (SF-539 CNS): 21.2 µM | TGI (SK-MEL-2 melanoma): 34.7 µM | TGI (SK-MEL-28 melanoma): > 100 µM | TGI (SK-MEL-5 melanoma): > 100 µM | TGI (SN12C renal): 79.6 µM | TGI (SNB-19 CNS): > 100 µM | TGI (SNB-75 CNS): 70.3 µM | TGI (SR leukemia): 32.2 µM | TGI (SW-620 colon): > 100 µM | TGI (T-47D breast): > 100 µM | TGI (TK-10 renal): > 100 µM | TGI (U251 CNS): 32.9 µM | TGI (UACC-62 melanoma): > 100 µM | TGI (UO-31 renal): > 100 µM

O=C1c2ccccc2CC12CCC1(CC2)OCCO1
TGI (786-0 renal): > 100 µM | TGI (A549 NSCLC): > 100 µM | TGI (ACHN renal): > 100 µM | TGI (BT-549 breast): > 100 µM | TGI (CAKI-1 renal): > 100 µM | TGI (CCRF-CEM leukemia): > 100 µM | TGI (COLO 205 colon): > 100 µM | TGI (DU-145 prostate): > 100 µM | TGI (EKVX NSCLC): > 100 µM | TGI (HCC-2998 colon): > 100 µM | TGI (HCT-116 colon): > 100 µM | TGI (HCT-15 colon): > 100 µM | TGI (HL-60(TB) leukemia): > 100 µM | TGI (HOP-62 NSCLC): > 100 µM | TGI (HS 578T breast): > 100 µM | TGI (HT29 colon): > 100 µM | TGI (IGROV1 ovarian): > 100 µM | TGI (K-562 leukemia): > 100 µM | TGI (KM12 colon): > 100 µM | TGI (LOX IMVI melanoma): > 100 µM | TGI (M14 melanoma): > 100 µM | TGI (MALME-3M melanoma): > 100 µM | TGI (MCF7 breast): > 100 µM | TGI (MDA-MB-231 breast): > 100 µM | TGI (MDA-N): > 100 µM | TGI (MOLT-4 leukemia): > 100 µM | TGI (NCI-H226 lung): > 100 µM | TGI (NCI-H23 lung): > 100 µM | TGI (NCI-H460 lung): > 100 µM | TGI (NCI-H522 lung): > 100 µM | TGI (NCI/ADR-RES ovarian): > 100 µM | TGI (OVCAR-4 ovarian): > 100 µM | TGI (OVCAR-5 ovarian): > 100 µM | TGI (OVCAR-8 ovarian): > 100 µM | TGI (PC-3 prostate): > 100 µM | TGI (RPMI-8226 leukemia): > 100 µM | TGI (RXF 393 renal): > 100 µM | TGI (SF-268 CNS): > 100 µM | TGI (SF-295 CNS): > 100 µM | TGI (SF-539 CNS): > 100 µM | TGI (SK-MEL-2 melanoma): > 100 µM | TGI (SK-MEL-28 melanoma): > 100 µM | TGI (SK-OV-3 ovarian): > 100 µM | TGI (SN12C renal): > 100 µM | TGI (SNB-19 CNS): > 100 µM | TGI (SNB-75 CNS): > 100 µM | TGI (SR leukemia): > 100 µM | TGI (SW-620 colon): > 100 µM | TGI (T-47D breast): > 100 µM | TGI (TK-10 renal): > 100 µM | TGI (U251 CNS): > 100 µM | TGI (UACC-257 melanoma): > 100 µM | TGI (UACC-62 melanoma): > 100 µM | TGI (UO-31 renal): > 100 µM

Cc1ccc(C(=O)N/N=C(\N=Nc2cccc(C)c2)c2ccc(N(CCC#N)CCC#N)cc2C)cc1
TGI (A498 renal): > 100 µM | TGI (A549 NSCLC): > 100 µM | TGI (ACHN renal): > 100 µM | TGI (CAKI-1 renal): > 100 µM | TGI (CCRF-CEM leukemia): > 100 µM | TGI (COLO 205 colon): > 100 µM | TGI (DU-145 prostate): > 100 µM | TGI (EKVX NSCLC): > 100 µM | TGI (HCC-2998 colon): > 100 µM | TGI (HCT-15 colon): > 100 µM | TGI (HL-60(TB) leukemia): > 100 µM | TGI (HOP-62 NSCLC): > 100 µM | TGI (HOP-92 NSCLC): > 100 µM | TGI (HS 578T breast): > 100 µM | TGI (HT29 colon): > 100 µM | TGI (IGROV1 ovarian): > 100 µM | TGI (K-562 leukemia): > 100 µM | TGI (KM12 colon): > 100 µM | TGI (LOX IMVI melanoma): > 100 µM | TGI (M14 melanoma): > 100 µM | TGI (MCF7 breast): > 100 µM | TGI (MDA-MB-231 breast): > 100 µM | TGI (MDA-MB-435): > 100 µM | TGI (MDA-N): > 100 µM | TGI (MOLT-4 leukemia): > 100 µM | TGI (NCI-H226 lung): > 100 µM | TGI (NCI-H23 lung): > 100 µM | TGI (NCI-H460 lung): > 100 µM | TGI (NCI/ADR-RES ovarian): > 100 µM | TGI (OVCAR-3 ovarian): > 100 µM | TGI (OVCAR-4 ovarian): > 100 µM | TGI (OVCAR-5 ovarian): > 100 µM | TGI (OVCAR-8 ovarian): > 100 µM | TGI (PC-3 prostate): > 100 µM | TGI (RPMI-8226 leukemia): > 100 µM | TGI (RXF 393 renal): > 100 µM | TGI (SF-268 CNS): > 100 µM | TGI (SF-295 CNS): > 100 µM | TGI (SF-539 CNS): > 100 µM | TGI (SK-MEL-2 melanoma): > 100 µM | TGI (SK-MEL-28 melanoma): 61.4 µM | TGI (SK-MEL-5 melanoma): > 100 µM | TGI (SK-OV-3 ovarian): > 100 µM | TGI (SNB-19 CNS): > 100 µM | TGI (SNB-75 CNS): > 100 µM | TGI (SR leukemia): > 100 µM | TGI (SW-620 colon): > 100 µM | TGI (T-47D breast): > 100 µM | TGI (TK-10 renal): > 100 µM | TGI (U251 CNS): > 100 µM | TGI (UACC-257 melanoma): > 100 µM | TGI (UACC-62 melanoma): > 100 µM | TGI (UO-31 renal): > 100 µM

— PubChem BioAssay (NCI)
